From EP4810052A2, “HCRHR2 SELECTIVE POLYPEPTIDES” (Gubra A/S, priority 2023, dated 2026)
Like-named read-outs stand apart in the source and are kept apart here. Starred links: 1 amine or outer side, 2 acyl side, 3 side chain; linkers in the order of their positions; H or OH if unused. Non-standard residues stand in square brackets, D forms with d. Residues, ends and D or L forms follow the SMILES beside them. Groups on a side chain read outwards from the residue. *: point of attachment. C20 diacid = O=C(O)CCCCCCCCCCCCCCCCCCC(=O)*; γGlu = O=C(O)[C@H](CCC(=O)[*:2])N[*:1]; NMeI = CC[C@H](C)[C@H](NC)C(=O)O; Nle = CCCC[C@H](N)C(=O)O; AEEA = NCCOCCOCC(=O)O; Aib = CC(C)(N)C(=O)O

Columns and labels:
[1] = Dynamic Light Scattering (DLS) of peptide oligomerisation/particle formation; type: physicochemical; conditions: average of three replica
Procedure: Samples were prepared by dissolving 800 nmol of each peptide in 400 µl 50 mM phosphate pH 8.0 to a concentration of 2000 µM (ca 10 mg/ml). After fully dissolution for 2 hours on a rocking table, samples were adjusted to pH 7.5 and filtrated through a 0.2 µm Whatman Anotop filter. Comparators were commercially available liraglutide drug product (Victoza®, Novo Nordisk) pH 8.2, and an aliquot of this drug product adjusted to pH 6.7. These samples were filtrated through a 0.02 µm Whatman Anotop filter.
Samples were pipetted as triplicate of 30 µl to an Aurora 384 well microtiter plate, which was centrifuged for 2 minutes at 2200 rpm and then sealed with a Thermo sealing tape 235307. DLS measurements were done in a Wyatt DynaPro platereader III with the following parameters:
The microtiter plate was incubated in a Grant-bio Thermo Shaker PHMP-4 at 40°C with 700 rpm continuous shaking before subsequent DLS measurements. Data analysis was done using Wyatt Dynamics software ver. 7.10.1.21.
Samples were prepared and measured as described in procedure. The hydrodynamic radii (Rh) and associated polydispersity (PD) resulting from cumulant analysis (assuming one species) are shown in the Table 8 as averages of three replica. T0 indicates the measurement at time zero after sample preparation; T5 indicates the measurements of five days of incubation as described above.

[2] = Thioflavin T fibril formation assay of purified peptides; type: physicochemical; set-up: key: Amyloid fibril formation detected by an increase in ThT fluorescence was denoted with "Yes"; samples without increasing ThT fluorescence hence not forming amyloid fibrils were denoted "No"
Outline: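 Compounds at 200 µM in 50 mM phosphate buffer at the stated pH values, or at 200 µM in semaglutide drug product adjusted to pH 7.4, with 4 µM ThT final. Fibrillation followed as ThT fluorescence (ex 450/em 480 nm) over 96 h at 40°C, with 5 min shaking at 700 rpm alternating with 5 min rest; triplicates.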

PK in mice = type: in vivo; set-up: T½ / MRT: unit: h; conditions: for half-life: read-out: T½ (converted)
Outline: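 Male NMRI/RjHan lean mice, about 8 weeks old after acclimatization, got one peptide IV and another SC at 15 or 50 nmol/kg. Sparse plasma sampling (3 mice per timepoint) ran from 0.17 to 96 h post-dose. LC-MS/MS quantified plasma levels, with parameters from non-compartmental analysis.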

[3] = Chemical stability of purified peptides (RP-UHPLC main peak purity loss); type: physicochemical; conditions: for Purity loss (RP-UPLC analysis) T14-T0 (%): 14 days; for Purity loss (RP-UPLC analysis) T28-T0 (%): 28 days
Outline: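 Peptides at about 1.0 mg/ml in 50 mM phosphate buffer pH 7.5, or pH-adjusted for the pH series, were incubated at 40 °C for 14 and 28 days. Main-peak purity was taken as main-peak area over total area by RP-UHPLC (UV 215 nm, C8, 50 °C). Purity loss was calculated versus T0.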

[4] = T0, time zero after sample preparation
[5] = T5, five days incubation at 40°C with continuous shaking
[6] = male, NMRI/RjHan, in vivo, iv, Mouse, 15 nmol/kg i.v.
[7] = male, NMRI/RjHan, in vivo, sc, Mouse, 15 nmol/kg s.c.

For `CCCC[C@H](NC(=O)[C@@H](NC(=O)[C@H](CCC(=O)O)NC(=O)C(C)(C)NC(=O)[C@H](CC(N)=O)NC(=O)[C@@H](NC(=O)[C@H](CCCCNC(=O)COCCOCCNC(=O)COCCOCCNC(=O)CC[C@H](NC(=O)CC[C@H](NC(=O)CCCCCCCCCCCCCCCCCCC(=O)O)C(=O)O)C(=O)O)NC(=O)[C@H](C)NC(=O)[C@H](CCC(N)=O)NC(=O)[C@H](CCC(=O)O)NC(=O)[C@H](CCCNC(=N)N)NC(=O)[C@H](C)NC(=O)[C@H](C)NC(=O)[C@H](CCCNC(=N)N)NC(=O)[C@H](C)NC(=O)[C@H](CCCNC(=N)N)NC(=O)[C@H](C)NC(=O)[C@H](CCC(N)=O)NC(=O)[C@H](CO)NC(=O)[C@H](CC(C)C)NC(=O)[C@H](CC(C)C)NC(=O)[C@@H](NC(=O)[C@H](CCC(N)=O)NC(=O)[C@H](CC(C)C)NC(=O)[C@H](CC(C)C)NC(=O)CNC(=O)[C@@H](NC(=O)[C@@H]1CCCN1C(=O)[C@@H](NC(=O)[C@H](CC(=O)O)NC(=O)[C@H](CC(C)C)NC(=O)[C@H](CO)NC(=O)[C@H](CC(C)C)NC(=O)[C@@H](NC(=O)[C@@H](NC)[C@@H](C)CC)C(C)C)C(C)C)[C@@H](C)CC)[C@@H](C)CC)[C@@H](C)O)[C@@H](C)CC)C(=O)N[C@@H](C)C(=O)N[C@@H](CCC(=O)O)C(=O)N[C@H](C(N)=O)C(C)C` [SEQ ID NO: 215] (H-[NMeI]VLSLDVPIGLLQILLSQARARAAREQAK([AEEA-AEEA-γGlu-γGlu-C20 diacid])TN[Aib]EI[Nle]AEV-NH2), the “PD (%)” value [1, 4] was 10.8%, the “Rh (nm)” value [1, 4] was 5.6 nm and the “PD (%)” value [1, 5] was 15.1%. For the same compound, the “Rh (nm)” value [1, 5] was 5.9 nm, the “Amyloid fibril formation + semaglutide (Ozempic®), pH 7.4” value ([2]; 200 µM compound dissolved in semaglutide drug product, pH 7.4, listed as None = drug product alone) was “No” and the “Amyloid fibril formation pH 7.0” value ([2]; 200 µM in 50 mM phosphate buffer, pH 7.0) was “No”. The “Amyloid fibril formation pH 7.5” value ([2]; 200 µM in 50 mM phosphate buffer, pH 7.5) was “No”, the “Amyloid fibril formation pH 8.0” value ([2]; 200 µM in 50 mM phosphate buffer, pH 8.0) was “No” and the “Fibrillation (pH 7.5)” value ([2]; pH 7.5) was “No”. The MRT (PK in mice; Mouse) was 17.4, the T½ (PK in mice; Mouse) was 12.6 and the bioavailability (PK in mice; male, NMRI, mouse, in vivo, sc) was 56%. For the same compound, the clearance (PK in mice; [6]) was 4 mL/h/kg, the half-life (PK in mice; [6]) was 12.6 h and the Cmax (PK in mice; [7]) was 58 nM. The Tmax (PK in mice; [7]) was 6 h, the half-life (PK in mice; [7]) was 14.1 h and the “Purity loss (RP-UPLC analysis) T14-T0 (%)” value ([3]; pH 7.0, 40°C) was 0.2%. For the same compound, the “Purity loss (RP-UPLC analysis) T28-T0 (%)” value ([3]; pH 7.0, 40°C) was -0.3%, the “Purity loss (RP-UPLC analysis) T14-T0 (%)” value ([3]; pH 7.5, 40°C) was 0.1% and the “Purity loss (RP-UPLC analysis) T28-T0 (%)” value ([3]; pH 7.5, 40°C) was -0.1%. For the same compound, the “Chemical stability at pH 7.5 after 14 days at 40°C (% degradation)” value ([3]; pH 7.5, 14 days, 40°C) was -0.92%, the “Chemical stability at pH 7.5 after 28 days at 40°C (% degradation)” value ([3]; pH 7.5, 28 days, 40°C) was 0.31% and the “Purity loss (RP-UPLC analysis) T14-T0 (%)” value ([3]; pH 8.0, 40°C) was -0.4%. The “Purity loss (RP-UPLC analysis) T28-T0 (%)” value ([3]; pH 8.0, 40°C) was -0.7%.
